Results: US11180474B2 (BRISTOL-MYERS SQUIBB COMPANY, priority 2016, dated 2021)
pIC50: −log10 of the molar value.

Tests used:
human TLR9 = biological target: T1, human TLR9 (Homo sapiens, UniProt Q9NR96); assay: TLR9 inhibition reporter assay (HEK-Blue cells, SEAP reporter, ODN2006 stimulation); assay type: cell-based; settings: HEK-Blue cells overexpressing human TLR9, ODN2006 5 nM
T1 construct: host or cells: HEK-Blue cells
T1 sequence (Q9NR96 26-1032): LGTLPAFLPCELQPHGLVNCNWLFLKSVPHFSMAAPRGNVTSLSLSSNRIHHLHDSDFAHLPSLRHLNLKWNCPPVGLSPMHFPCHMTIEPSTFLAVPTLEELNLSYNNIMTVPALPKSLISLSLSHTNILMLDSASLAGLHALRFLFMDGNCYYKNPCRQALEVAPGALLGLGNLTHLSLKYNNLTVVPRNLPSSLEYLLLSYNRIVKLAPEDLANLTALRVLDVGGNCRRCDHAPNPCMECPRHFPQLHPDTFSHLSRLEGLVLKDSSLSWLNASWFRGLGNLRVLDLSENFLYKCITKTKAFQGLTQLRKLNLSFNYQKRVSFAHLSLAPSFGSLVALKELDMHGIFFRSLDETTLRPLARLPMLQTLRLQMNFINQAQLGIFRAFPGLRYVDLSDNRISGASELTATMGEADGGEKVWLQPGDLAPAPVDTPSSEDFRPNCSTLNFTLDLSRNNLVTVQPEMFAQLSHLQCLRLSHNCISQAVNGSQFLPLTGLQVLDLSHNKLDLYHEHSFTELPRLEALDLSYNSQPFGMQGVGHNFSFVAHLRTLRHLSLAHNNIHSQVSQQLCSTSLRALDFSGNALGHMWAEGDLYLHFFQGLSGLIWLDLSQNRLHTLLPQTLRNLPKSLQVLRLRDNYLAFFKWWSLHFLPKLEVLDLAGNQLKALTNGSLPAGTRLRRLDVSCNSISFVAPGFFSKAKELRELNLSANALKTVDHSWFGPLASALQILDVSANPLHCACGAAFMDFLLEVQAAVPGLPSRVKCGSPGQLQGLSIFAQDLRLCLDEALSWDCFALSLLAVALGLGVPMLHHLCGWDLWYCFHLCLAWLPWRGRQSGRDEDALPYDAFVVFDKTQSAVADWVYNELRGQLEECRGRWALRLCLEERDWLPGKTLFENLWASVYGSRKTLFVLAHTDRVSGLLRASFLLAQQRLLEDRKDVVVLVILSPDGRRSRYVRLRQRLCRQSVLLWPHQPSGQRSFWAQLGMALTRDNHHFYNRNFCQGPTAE
In short: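 Agonists used: gardiquimod 7.5 μM (TLR7), R848 15.9 μM (TLR8), ODN2006 5 nM (TLR9), added after 30 min room-temperature compound pre-treatment (0.05 nM–50 μM) of receptor-overexpressing HEK-Blue cells. SEAP reporter (NF-κB/AP-1 driven) read after 22 h at 37 °C; inhibition scaled between agonist+DMSO and reference-inhibitor wells.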

human TLR7 = biological target: T2, human TLR7 (Homo sapiens, UniProt Q9NYK1); assay: TLR7 inhibition reporter assay (HEK-Blue cells, SEAP reporter, gardiquimod stimulation); assay type: cell-based; settings: HEK-Blue cells overexpressing human TLR7, gardiquimod 7.5 μM
T2 construct: host or cells: HEK-Blue cells
T2 sequence (Q9NYK1 27-1049): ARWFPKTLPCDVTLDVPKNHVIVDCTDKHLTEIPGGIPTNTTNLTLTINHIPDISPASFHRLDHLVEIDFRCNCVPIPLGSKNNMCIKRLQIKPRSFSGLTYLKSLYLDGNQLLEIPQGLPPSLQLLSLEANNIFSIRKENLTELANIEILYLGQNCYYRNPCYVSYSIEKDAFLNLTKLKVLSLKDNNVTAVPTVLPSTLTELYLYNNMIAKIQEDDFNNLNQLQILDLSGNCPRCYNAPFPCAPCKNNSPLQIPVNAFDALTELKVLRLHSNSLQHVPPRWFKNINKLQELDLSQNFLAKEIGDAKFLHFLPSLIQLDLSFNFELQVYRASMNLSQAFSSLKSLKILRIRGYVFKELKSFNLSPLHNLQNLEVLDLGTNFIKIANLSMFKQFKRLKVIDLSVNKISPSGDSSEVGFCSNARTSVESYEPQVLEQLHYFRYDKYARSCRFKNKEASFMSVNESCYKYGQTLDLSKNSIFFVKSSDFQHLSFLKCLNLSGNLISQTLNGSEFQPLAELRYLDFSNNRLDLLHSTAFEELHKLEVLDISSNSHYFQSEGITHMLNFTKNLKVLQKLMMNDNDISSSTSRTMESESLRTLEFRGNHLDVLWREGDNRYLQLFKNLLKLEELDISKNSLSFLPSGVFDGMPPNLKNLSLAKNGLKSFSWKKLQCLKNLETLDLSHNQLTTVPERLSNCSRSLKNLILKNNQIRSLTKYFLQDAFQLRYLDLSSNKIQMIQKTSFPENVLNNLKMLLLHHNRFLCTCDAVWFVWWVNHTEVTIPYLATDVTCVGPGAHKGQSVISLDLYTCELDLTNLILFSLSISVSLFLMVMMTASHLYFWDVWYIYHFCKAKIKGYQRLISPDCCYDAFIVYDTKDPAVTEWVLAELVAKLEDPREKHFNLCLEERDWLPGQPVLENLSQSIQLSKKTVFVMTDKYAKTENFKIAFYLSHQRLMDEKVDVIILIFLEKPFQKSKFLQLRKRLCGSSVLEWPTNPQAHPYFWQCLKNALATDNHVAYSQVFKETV
In short: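 HEK-Blue reporter cells (15,000/well TLR7, 20,000 TLR8) exposed to compound over 0.05 nM–50 μM, agonist-stimulated (R848 for TLR8, gardiquimod for TLR7), 22 h at 37 °C, 5% CO2. SEAP read with HEK-Blue Detection; % inhibition relative to agonist-plus-DMSO and known-inhibitor controls.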

Compound	pIC50 (human TLR9)	pIC50 (human TLR7)
COc1ccc(-c2[nH]c3ccc(C4CCN(C(=O)CN5CCC[C@H](C(=O)NC6(CO)CCCC6)C5)CC4)cc3c2C(C)C)cc1OC [Example 296, (S)-1-(2-(4-(2-(3,4-dimethoxyphenyl)-3-isopropyl-1H-indol-5-yl)piperidin-1-yl)-2-oxoethyl)-N-(1-(hydroxymethyl)cyclopentyl)piperidine-3-carboxamide]	5.52	7.46
COc1ccc(-c2[nH]c3ccc(C4CCN(C(=O)CNC[C@@H](F)C(C)(C)O)CC4)cc3c2C(C)C)cc1OC [Example 251, (R)-1-(4-(2-(3,4-dimethoxyphenyl)-3-isopropyl-1H-indol-5-yl)piperidin-1-yl)-2-((2-fluoro-3-hydroxy-3-methylbutyl)amino) ethan-1-one]	4.81	6.43
COc1ccc(-c2[nH]c3ccc(C4CCN(C(=O)CN5CCC[C@@H](C(=O)N6C(C)CCC6C)C5)CC4)cc3c2C(C)C)cc1OC (stereo partly drawn) [Example 311, 1-(4-(2-(3,4-dimethoxyphenyl)-3-isopropyl-1H-indol-5-yl)piperidin-1-yl)-2-((3R)-3-(2,5-dimethylpyrrolidine-1-carbonyl)piperidin-1-yl)ethan-1-one]	5.61	6.83
COc1ccc(-c2[nH]c3ccc(C4CCN(C(=O)CNC5CCC(O)CC5)CC4)cc3c2C(C)C)cc1OC (stereo not shown) [Example 246, 1-(4-(2-(3,4-dimethoxyphenyl)-3-isopropyl-1H-indol-5-yl)piperidin-1-yl)-2-((4-hydroxycyclohexyl)amino)ethan-1-one]	6.18	7.96
COc1ccc(-c2[nH]c3ccc(C4CCN(C5C[C@H]6CC[C@@H](C5)N6C)CC4)cc3c2C)cc1OC (stereo partly drawn) [Example 21, 2-(3,4-dimethoxyphenyl)-3-methyl-5-(1-((1R,5S)-8-methyl-8-azabicyclo[3.2.1]octan-3-yl)piperidin-4-yl)-1H-indole]	7.08	7.14
COc1ccc(-c2[nH]c3ccc(C4CCN(C(=O)CN5CCC[C@H](C(=O)N6CCN(Cc7ccc(Br)cc7)CC6)C5)CC4)cc3c2C(C)C)cc1OC [Example 294, (S)-2-(3-(4-(4-bromobenzyl)piperazine-1-carbonyl)piperidin-1-yl)-1-(4-(2-(3,4-dimethoxyphenyl)-3-isopropyl-1H-indol-5-yl)piperidin-1-yl)ethan-1-one]	5.65	5.92
COc1ccc(-c2[nH]c3ccc(C4CCN(C(=O)CN[C@H](CO)CC(C)C)CC4)cc3c2C(C)C)cc1OC [Example 231, (S)-1-(4-(2-(3,4-dimethoxyphenyl)-3-isopropyl-1H-indol-5-yl)piperidin-1-yl)-2-((1-hydroxy-4-methylpentan-2-yl)amino)ethan-1-one]	5.71	7.02
COc1ccc(-c2[nH]c3ccc(C4CCN(C(=O)CN5CCC(CO)CC5)CC4)cc3c2C(C)C)cc1OC [Example 243, 1-(4-(2-(3,4-dimethoxyphenyl)-3-isopropyl-1H-indol-5-yl)piperidin-1-yl)-2-(4-(hydroxymethyl)piperidin-1-yl)ethan-1-one]	5.82	7.26
COc1ccc(-c2[nH]c3ccc(C4CCN(C(=O)CN5CCC[C@H](C(=O)N6CCCC6)C5)CC4)cc3c2C(C)C)cc1OC [Example 287, (S)-1-(4-(2-(3,4-dimethoxyphenyl)-3-isopropyl-1H-indol-5-yl)piperidin-1-yl)-2-(3-(pyrrolidine-1-carbonyl)piperidin-1-yl)ethan-1-one]	5.64	7.42
COc1ccc(-c2[nH]c3ccc(C4CCN(CC(=O)N5CCCC(CO)C5)CC4)cc3c2C(C)C)cc1OC (stereo not shown) [Example 275, 2-(4-(2-(3,4-dimethoxyphenyl)-3-isopropyl-1H-indol-5-yl)piperidin-1-yl)-1-(3-(hydroxymethyl)piperidin-1-yl)ethan-1-one]	5.78	7.77
COc1ccc(-c2[nH]c3ccc(C4CCN(Cc5cnc(C)[nH]5)CC4)cc3c2C(C)C)cc1OC [Example 266, 2-(3,4-dimethoxyphenyl)-3-isopropyl-5-(1-((2-methyl-1H-imidazol-5-yl)methyl)piperidin-4-yl)-1H-indole]	5.90	7.32
COc1ccc(-c2[nH]c3ccc(C4CCN(C(=O)CNCC(N)=O)CC4)cc3c2C(C)C)cc1OC [Example 228, 2-((2-(4-(2-(3,4-dimethoxyphenyl)-3-isopropyl-1H-indol-5-yl)piperidin-1-yl)-2-oxoethyl)amino)acetamide]	4.82	7.34
COc1ccc(-c2[nH]c3ccc(C4CCN(C(=O)CN5CCC[C@H](C(=O)N6C(C)CCC6C)C5)CC4)cc3c2C(C)C)cc1OC (stereo partly drawn) [Example 300, 1-(4-(2-(3,4-dimethoxyphenyl)-3-isopropyl-1H-indol-5-yl)piperidin-1-yl)-2-((3S)-3-(2,5-dimethylpyrrolidine-1-carbonyl)piperidin-1-yl)ethan-1-one]	6.49	7.07
COc1ccc(-c2[nH]c3ccc(C4CCN(C(=O)CN5CCC[C@H](C(=O)N6CCN(c7cccc(C(F)(F)F)c7)CC6)C5)CC4)cc3c2C(C)C)cc1OC [Example 290, (S)-1-(4-(2-(3,4-dimethoxyphenyl)-3-isopropyl-1H-indol-5-yl)piperidin-1-yl)-2-(3-(4-(3-(trifluoromethyl)phenyl)piperazine-1-carbonyl)piperidin-1-yl)ethan-1-one]	5.27	5.76
COc1ccc(-c2[nH]c3ccc(C4CCN(C(=O)CN5CCC[C@H](C(=O)NC(C)C)C5)CC4)cc3c2C(C)C)cc1OC [Example 285, (S)-1-(2-(4-(2-(3,4-dimethoxyphenyl)-3-isopropyl-1H-indol-5-yl)piperidin-1-yl)-2-oxoethyl)-N-isopropylpiperidine-3-carboxamide]	5.31	7.26
COc1ccc(-c2[nH]c3ccc(C4CCN(CC(=O)N5CC[C@H](O)C5)CC4)cc3c2C(C)C)cc1OC [Example 278, (S)-2-(4-(2-(3,4-dimethoxyphenyl)-3-isopropyl-1H-indol-5-yl)piperidin-1-yl)-1-(3-hydroxypyrrolidin-1-yl)ethan-1-one]	5.54	8.10
COc1ccc(-c2[nH]c3ccc(C4CCN(C(=O)CN5CCC[C@@H](C(=O)N6CC7CNCC7C6)C5)CC4)cc3c2C(C)C)cc1OC (stereo partly drawn) [Example 310, 1-(4-(2-(3,4-dimethoxyphenyl)-3-isopropyl-1H-indol-5-yl)piperidin-1-yl)-2-((3R)-3-(octahydropyrrolo[3,4-c]pyrrole-2-carbonyl)piperidin-1-yl) ethan-1-one]	5.28	6.54
